Data on 2 compounds can be found in patent EP4299736A2, “HYDROLASES AND USES THEREOF” (Vilnius University, priority 2022, dated 2024).

As usually defined, the Km is the concentration of substrate that gives half-maximal velocity.

Holding throughout (assay): Spectrophotometric assay of hydrolytic activity (kinetic parameters)
Type in all cases: biochemical

The target in experiment [1] is hydrolase variant Seq ID No: 15 (site-directed mutant) (uncultured bacterium, UniProt A0ACD6BAS6). To be noted: potassium phosphate buffer, pH 7.5, 22 °C, 310 nm (BzdC) or 290 nm (dC); for Vmax: unit not given. The source says:
(§1) Mutations in the hydrolase's genes were introduced using methodology based on "Phusion™ Site-Directed Mutagenesis Kit" (Thermo Fisher Scientific). For specific mutagenesis, primer pairs meant to amplify the whole plasmid with the target protein gene, where one primer has miss-matched base pairs in the middle, were created (Fw/Rv): […]/[…] (SEQ ID NO:10); [formula] [formula] […]/[…] (SEQ ID NO:13); [formula] [formula] […]/[…] and […]/[…] (SEQ ID NO: 16, SEQ ID NO: 17, SEQ ID NO: 18); [formula] […]/[…] (SEQ ID NO: 21); [formula] […]/[…] (SEQ ID NO: 23); […]/[…] (SEQ ID NO: 24).
(§2) For the spectrophotometric assay, the reaction was started by adding an appropriate amount of protein to potassium phosphate buffer, pH 7.5 supplemented with 0.3, 0.15, 0.1, 0.075, 0.05, 0.0375, 0.025, 0.0125 mM N^4-benzoyl-2'-deoxycytidine, or 1, 0.8, 0.5, 0.4, 0.25, 0.2, 0.1, 0.05 mM 2'-deoxycytidine. Then, decreases in absorbance at either 310 for N^4-benzoyl-2'-deoxycytidine or 290 nm for 2'-deoxycytidine were recorded at 22 °C. Kinetic parameters (Table x) were calculated using Imfit-py 1.0.2 software fitting the experimental data to a simple Michaelis-Menten kinetics scheme. Table 5. Kinetic parameters of hydrolases. Substrate: BzdC - N4-benzoyl-2'-deoxycytidine; dC-2'-deoxycytidine.

In experiment [2] the target is hydrolase variant Seq ID No:13 (site-directed mutant) (uncultured bacterium, UniProt A0ACD6BAS6, form not given/G85I). To be noted: potassium phosphate buffer, pH 7.5, 22 °C, 310 nm (BzdC) or 290 nm (dC).
hydrolase variant Seq ID No:13 (site-directed mutant), sequence (A0ACD6BAS6 entry or part of it G85I, form open): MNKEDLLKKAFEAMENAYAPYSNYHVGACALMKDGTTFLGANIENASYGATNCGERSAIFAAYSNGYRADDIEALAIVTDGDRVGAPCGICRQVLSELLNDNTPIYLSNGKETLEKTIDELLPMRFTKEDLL
Excerpt: as §1, §2

In experiment [3] the test system is hydrolase Seq ID No: 3 (metagenomic hydrolase). To be noted: potassium phosphate buffer, pH 7.5, 22 °C; for kcat / Vmax: 310 nm (BzdC) or 290 nm (dC); for Vmax: unit not given; for Km: absorbance decrease at 310 nm (BzdC) or 290 nm (dC), Michaelis-Menten fit. The protocol: as §2
Experiment [4] addresses hydrolase Seq ID No: 1 (metagenomic, wild-type hydrolase) (uncultured bacterium, UniProt A0ACD6BAS6). To be noted: potassium phosphate buffer, pH 7.5, 22 °C; for kcat / Vmax: 310 nm (BzdC) or 290 nm (dC); for Vmax: unit not given; for Km: absorbance decrease at 310 nm (BzdC) or 290 nm (dC), Michaelis-Menten fit. On the procedure: as §2
For experiment [5], the target named is hydrolase variant Seq ID No: 10 (site-directed mutant) (uncultured bacterium, UniProt A0ACD6BAS6, DEL127-130, form not given). To be noted: potassium phosphate buffer, pH 7.5, 22 °C, 310 nm.
hydrolase variant Seq ID No: 10 (site-directed mutant), sequence (A0ACD6BAS6 entry or part of it DEL127-130): as the sequence (A0ACD6BAS6 entry or part of it G85I, form open) above
Excerpt: as §1, §2

The target in experiment [6] is hydrolase variant Seq ID No: 12 (site-directed mutant) (uncultured bacterium, UniProt A0ACD6BAS6). To be noted: potassium phosphate buffer, pH 7.5, 22 °C; 310 nm; unit not given.
hydrolase variant Seq ID No: 12 (site-directed mutant), sequence (A0ACD6BAS6 entry or part of it, change not shown): as the sequence (A0ACD6BAS6 entry or part of it G85I, form open) above
Excerpt: as §1, §2

In experiment [7] the target is hydrolase variant Seq ID No: 11 (site-directed mutant) (uncultured bacterium, UniProt A0ACD6BAS6). The conditions noted are these: potassium phosphate buffer, pH 7.5, 22 °C, 310 nm.
hydrolase variant Seq ID No: 11 (site-directed mutant), sequence (A0ACD6BAS6 entry or part of it, change not shown): as the sequence (A0ACD6BAS6 entry or part of it G85I, form open) above
Excerpt: as §1, §2

SMILES strings stand for the structures.

hydrolase variant Seq ID No: 15 (site-directed mutant), sequence (A0ACD6BAS6 entry or part of it, change not shown): as the sequence (A0ACD6BAS6 entry or part of it G85I, form open) above
hydrolase Seq ID No: 1 (metagenomic, wild-type hydrolase), sequence (A0ACD6BAS6 entry or part of it): as the sequence (A0ACD6BAS6 entry or part of it G85I, form open) above

`Nc1ccn([C@H]2C[C@H](O)[C@@H](CO)O2)c(=O)n1` [dC, 2'-deoxycytidine]: the kcat result was “(2.58 ± 0.09) × 10^-2 s^-1” in experiment [1], “(6.87 ± 0.80) × 10 ^-1 s^-1” in experiment [2], “(2.09 +/- 0.09) ×10^-1 s^-1” in experiment [3] and “(24.4 ± 1.71) × 10 ^-1 s^-1” in experiment [4]. Moreover, the Vmax entry in experiment [1] is “(6.70 ± 0.24) × 10^-5”; in experiment [2] (unit not given), “(4.35 ± 0.51) × 10^-4”; in experiment [3], “(1.20 ± 0.05) × 10^-4”; in experiment [4], “(2.67 ± 0.19) × 10^-4”. Further, the Km in experiment [3] was 182 µM; in experiment [4], 195 µM.

On to `O=C(Nc1ccn([C@H]2C[C@H](O)[C@@H](CO)O2)c(=O)n1)c1ccccc1` [BzdC, N4-benzoyl-2'-deoxycytidine], for which the kcat entry in experiment [1] is “(1.22 ± 0.09) × 10^-2 s^-1”; in experiment [5], “(5.41 ± 0.23) × 10^-2 s^-1”; in experiment [2] it was “(2.36 ± 0.01) × 10 ^-1 s^-1”; in experiment [7], “(3.88 ± 0.80) × 10^-2 s^-1”; in experiment [3] it was “(3.81 +/- 0.24) × 10 ^-1 s^-1”; in experiment [4] it was “(5.04 ± 0.4) ×10^-1 s^-1”. For the same compound, the Vmax result in experiment [1] is reported as “(3.17 ± 0.25) × 10^-5”; in experiment [5] (unit not given), “(5.49 ± 0.23) × 10^-5”; in experiment [6], “(1.19 ± 0.15) × 10^-4”; in experiment [7] (unit not given), “(4.56 ± 0.093) × 10^-5”; in experiment [3], “(6.55 ± 0.41) × 10^-5”; in experiment [4] it was “(1.00 ± 0.08) × 10^-4”. The Km in experiment [3] was determined as 46.5 µM; in experiment [4] it was 115 µM.
